The values that follow come from article PMC7563222, “Recognition of Dimeric Lewis X by Anti-Dimeric Le^x Antibody SH2” (Vaccines, 2020).

For one data set, the target named is mAb SH2. In words: Competitive ELISA: inhibition of mAb SH2 binding to immobilized (DimLe^x)16-BSA conjugate 1. The following applies: for IC50: DimLe^x-BSA conjugate 1 immobilized (5 μg/mL), SH2 ascites 1:500; for ∆(∆G): RT ln([I1]/[I2]), reference inhibitor DimLe^x 6; for ∆(∆G) / SH2 ∆(∆G): T = 296 K; for SH2 ∆(∆G): reference inhibitor Le^x 7, --- = No inhibition. More on the design: species or system mouse. Here is the method:
A MaxiSorp NUNC 96-well ELISA microtiter plate was coated with a dilution of the (DimLe^x)16-BSA conjugate 1 (100 μL per well, 5 μg/mL) in a 10 mM PBS solution at pH 7.1. The plate was covered with sealing tape and incubated at 4 °C overnight. The antigen solution was discarded, and the plate was washed (using ELx405 auto plate washer, 5 × 15 s) with a 10 mM PBS buffer at pH 7.3 containing 0.05% Tween 20. In 1.5 mL Eppendorf tubes, 175 μL dilutions of competitors (concentration ranging from 0.632 mg/mL to 2 mg/mL in 10 mM PBS-0.05% Tween 20) were incubated for 1 h at 23 °C (in the dark) with 175 μL of a solution of SH2 ascites (1:500 dilution in 10 mM PBS-0.05% Tween 20). At the same time, the plate was blocked with 0.05% skim milk in PBS (300 μL per well). After 1 h of incubation at 37 °C, the plate was washed with 10 mM PBS-0.05% Tween 20. Each well then received 100 μL of the competitor-mAb mixture. Three wells were used as the blank control in which the competitor-mAb mixture was not added, rather received 100 μL of 10 mM PBS-0.05% Tween 20. The plate was incubated for 3 h at 23 °C (in the dark). The plate was subsequently washed using the plate washer with PBS-0.05% Tween 20. A dilution of commercially available horseradish peroxidase labeled goat anti-mouse antibody (1:5000 in 10 mM PBS-0.05% Tween 20, 100 μL per well) was added to each well. After 1 h of incubation at 23 °C (in the dark), the plate was washed with 10 mM PBS-0.05% Tween 20. A solution of the chromogenic substrate TMB (100 μL per well) was added. After a 10 min incubation period at 23 °C (in the dark), 100 μL of 5% Phosphoric Acid stop solution was added to the wells to quench the reaction. The absorbance values were read at 450 nm employing a PowerWave XS plate reader. All samples were prepared in triplicate. The absorbance values were plotted as the percentage inhibition against an increasing concentration of competitor, calculated using wells containing no competitor as the reference point. The values were fitted to a 4-parameter logistics sigmoidal equation: y = y0 + a/[1 + (x/x0)^b] using Sigma Plot 10.0. The concentration of each analogue required for 50% inhibition (IC50) of Le^x-SH2 binding and the corresponding changes in free energy Δ(ΔG) of binding (kcal·mol^−1) using DimLe^xOPr 6 (Table 1) or Le^xOMe 7 (Table 2) as the reference were calculated.
Background: An ELISA detects its analyte on a solid surface through an enzyme-linked reagent.

The subject of a further data set is mAb 1G5F6. Set-up: method as in PMID 31666308. The following applies: DimLe^x-BSA conjugate 1 immobilized; Le^x trisaccharide 7 as reference; --- = No inhibition; cited from earlier work.
Another data set concerns mAb SH1. The following applies: cited from earlier work; for SH1 ∆(∆G): Le^x-BSA conjugate 4 immobilized, Le^x trisaccharide 7 as reference, --- = No inhibition.
[1] abbreviates: Table 1, read-out: IC50 (concentration of inhibitor required for 50% inhibition).

Like-named read-outs stand apart in the source and are kept apart here.

As to `CCCO[C@@H]1O[C@H](CO)[C@@H](O[C@@H]2O[C@H](CO)[C@H](O)[C@H](O[C@@H]3O[C@H](CO)[C@@H](O[C@@H]4O[C@H](CO)[C@H](O)[C@H](O)[C@H]4O)[C@H](O[C@@H]4O[C@@H](C)[C@@H](O)[C@@H](O)[C@@H]4O)[C@H]3NC(C)=O)[C@H]2O)[C@H](O[C@@H]2O[C@@H](C)[C@@H](O)[C@@H](O)[C@@H]2O)[C@H]1NC(C)=O` [compound 6, DimLe^x propyl hexasaccharide], the IC50 on mAb SH2 (setting [1]) is 503 µM. In addition, the “∆(∆G)” value in the data set on mAb SH2 (Table 1) came out at 0 kcal/mol.

Consider `CO[C@@H]1O[C@H](CO)[C@@H](O[C@@H]2O[C@H](CO)[C@H](O)[C@H](O)[C@H]2O)[C@H](O[C@@H]2O[C@@H](C)[C@@H](O)[C@@H](O)[C@@H]2O)[C@H]1NC(C)=O` [compound 7, Le^x methyl glycoside], for which, at mAb SH2 (setting [1]), the IC50 is 47 µM. Further, the “∆(∆G)” value with mAb SH2 (Table 1) was -1.4 kcal/mol. In the data set with mAb SH2 (Table 2), the “SH2 ∆(∆G)” value was 0 kcal/mol. Moreover, the “1G5F6 ∆(∆G)” value with mAb 1G5F6 was 0 kcal/mol. In addition, the “SH1 ∆(∆G)” value in the data set with mAb SH1 is 0 kcal/mol.

`CC(=O)NC1C(OC2C(O)C(O)OC(CO)C2O)OC(CO)C(OC2OC(CO)C(O)C(O)C2O)C1OC1OC(C)C(O)C(O)C1O` (stereo not shown) [compound 9, Lex[1,3]Gal, reference compound]: on mAb SH2 (setting [1]), the IC50 stood at 529 µM. Moreover, the “∆(∆G)” value with mAb SH2 (Table 1) was determined as 0.03 kcal/mol.

On to `CO[C@@H]1O[C@H](CO)[C@@H](O[C@@H]2O[C@H](CO)[C@H](O)[C@H](O[C@@H]3O[C@H](CO)[C@@H](O)[C@H](O)[C@H]3NC(C)=O)[C@H]2O)[C@H](O[C@@H]2O[C@@H](C)[C@@H](O)[C@@H](O)[C@@H]2O)[C@H]1NC(C)=O` [compound 10, GlcNAc[1,3″]Le^x], for which the IC50 on mAb SH2 (setting [1]) turned out to be 18600 µM. Also, the “∆(∆G)” value with mAb SH2 (Table 1) worked out at 2.1 kcal/mol.

Regarding `CCCCCCO[C@@H]1O[C@H](CO)[C@@H](O[C@@H]2O[C@H](CO)[C@H](O)[C@H](O[C@@H]3O[C@H](CO)[C@@H](O[C@@H]4O[C@H](CO)[C@H](O)[C@H](O)[C@H]4O)[C@H](O)[C@H]3NC(C)=O)[C@H]2O)[C@H](O[C@@H]2O[C@@H](C)[C@@H](O)[C@@H](O)[C@@H]2O)[C@H]1NC(C)=O` [compound 13, LacNAc[1,3″]Lex], in the data set on mAb SH2, the “Inhibition of SH2 binding to (DimLe^x)16-BSA by soluble oligosaccharide (in words)” value (“Inhibition of SH2 binding” below) is on record as “lack of competitive binding”.

With `CCCCCO[C@@H]1O[C@H](CO)[C@@H](O[C@@H]2O[C@H](CO)[C@H](O)[C@H](O[C@@H]3O[C@H](CO)[C@@H](O)[C@H](O[C@@H]4O[C@@H](C)[C@@H](O)[C@@H](O)[C@@H]4O)[C@H]3NC(C)=O)[C@H]2O)[C@H](O[C@@H]2O[C@@H](C)[C@@H](O)[C@@H](O)[C@@H]2O)[C@H]1NC(C)=O` [compound 14, Fuc[1,3,]GlcNAc[1,3″]Le^x], the “Inhibition of SH2 binding” value with mAb SH2 was “lack of competitive binding”.

Regarding `CO[C@@H]1O[C@H](CO)[C@@H](O[C@@H]2O[C@H](CO)[C@H](O)[C@H](O)[C@H]2O)[C@H](O[C@@H]2O[C@@H](C)[C@@H](O)[C@@H](O)[C@@H]2O)[C@H]1O` [compound 15, LacLe^x], the “Inhibition of SH2 binding” value in the data set on mAb SH2 is “no inhibition”. In addition, at mAb SH2 (Table 2, read-out: SH2 IC50), the IC50 is over 1800 µM. In the data set with mAb 1G5F6, the “1G5F6 ∆(∆G)” value was 2.5 kcal/mol. In addition, in the data set on mAb SH1, the “SH1 ∆(∆G)” value was 0.2 kcal/mol.

As to `COC1OC(CO)C(OC2OC(CO)C(O)C(O)C2O)C(OC2OC(C)C(O)C(O)C2O)C1NC(C)=O` (stereo not shown) [compound 16, GlcLe^x], the “Inhibition of SH2 binding” value in the data set on mAb SH2 is listed as “no inhibition”. The IC50 on mAb SH2 (Table 2, read-out: SH2 IC50) is over 1800 µM. The “1G5F6 ∆(∆G)” value in the data set with mAb 1G5F6 was 2.7 kcal/mol. Moreover, in the data set on mAb SH1 (galactose of Le^x replaced by glucose), the “Binding by SH1 (in words)” value is given as “total loss of binding”.

For the compound `CO[C@@H]1O[C@H](CO)[C@@H](O[C@@H]2O[C@H](CO)[C@H](O)[C@H](O)[C@H]2O)[C@H](O[C@@H]2O[C@@H](C)[C@H](O)[C@@H](O)[C@H]2O)[C@H]1NC(C)=O` [compound 17, RhaLe^x], the IC50 at mAb SH2 (Table 2, read-out: SH2 IC50) was 827 µM. Besides, the “SH2 ∆(∆G)” value in the data set on mAb SH2 (Table 2) was found to be 1.7 kcal/mol. Further, in the data set with mAb 1G5F6, the “1G5F6 ∆(∆G)” value was 1.6 kcal/mol. In the data set with mAb SH1, the “SH1 ∆(∆G)” value is 1.1 kcal/mol.

For the compound `CO[C@@H]1O[C@H](CO)[C@@H](O[C@@H]2O[C@H](CO)[C@H](O)[C@H](O)[C@H]2O)[C@H](O[C@@H]2O[C@@H](C)[C@H](O)[C@@H](O)[C@H]2O)[C@H]1O` [compound 18, RhaLac], the “Inhibition of SH2 binding” value with mAb SH2 is “no inhibition”. The IC50 at mAb SH2 (Table 2, read-out: SH2 IC50) is over 1800 µM. In the data set with mAb 1G5F6, the “1G5F6 ∆(∆G)” value is 3.2 kcal/mol. In the data set with mAb SH1, the “SH1 ∆(∆G)” value was 1.5 kcal/mol.

`CO[C@@H]1O[C@H](CO)[C@@H](O[C@@H]2O[C@H](CO)[C@H](OC)[C@H](O)[C@H]2O)[C@H](O[C@@H]2O[C@@H](C)[C@@H](O)[C@@H](O)[C@@H]2O)[C@H]1O` [compound 19]: on mAb SH2 (Table 2, read-out: SH2 IC50), the IC50 came out at 148 µM. Further, the “SH2 ∆(∆G)” value in the data set with mAb SH2 (Table 2) stood at 0.7 kcal/mol.

For `CO[C@@H]1O[C@H](CO)[C@@H](O[C@@H]2O[C@H](CO)C[C@H](O)[C@H]2O)[C@H](O[C@@H]2O[C@@H](C)[C@@H](O)[C@@H](O)[C@@H]2O)[C@H]1O` [compound 20, 4″-HLe^x], the IC50 at mAb SH2 (Table 2, read-out: SH2 IC50) is 74 µM. In addition, in the data set with mAb SH2 (Table 2), the “SH2 ∆(∆G)” value was 0.3 kcal/mol. For the same compound, the “1G5F6 ∆(∆G)” value in the data set on mAb 1G5F6 is 0.3 kcal/mol. Further, the “SH1 ∆(∆G)” value in the data set on mAb SH1 is 1.3 kcal/mol.

For the compound `CO[C@@H]1O[C@H](CO)[C@@H](O[C@@H]2O[C@H](CO)[C@H](Cl)[C@H](O)[C@H]2O)[C@H](O[C@@H]2O[C@@H](C)[C@@H](O)[C@@H](O)[C@@H]2O)[C@H]1O` [compound 21, 4″-ClLe^x], on mAb SH2 (Table 2, read-out: SH2 IC50), the IC50 is 19 µM. The “SH2 ∆(∆G)” value in the data set on mAb SH2 (Table 2) was -0.5 kcal/mol. The “1G5F6 ∆(∆G)” value in the data set with mAb 1G5F6 is 0.3 kcal/mol. Further, in the data set with mAb SH1, the “SH1 ∆(∆G)” value is 1.6 kcal/mol.

As for `CO[C@@H]1O[C@H](CO)[C@@H](O[C@@H]2O[C@H](CO)[C@H](F)[C@H](O)[C@H]2O)[C@H](O[C@@H]2O[C@@H](C)[C@@H](O)[C@@H](O)[C@@H]2O)[C@H]1O` [compound 22, 4″-FLe^x], the IC50 at mAb SH2 (Table 2, read-out: SH2 IC50) was determined as 17 µM. The “SH2 ∆(∆G)” value with mAb SH2 (Table 2) was -0.6 kcal/mol. In the data set on mAb 1G5F6, the “1G5F6 ∆(∆G)” value was -0.1 kcal/mol. Moreover, in the data set with mAb SH1, the “SH1 ∆(∆G)” value was 2.1 kcal/mol.
